Data from ChEMBL document CHEMBL5212743, “Selectivity Literature for EUbOPEN Chemogenomics Library wave 3” (2023).
One block for each compound: values may come before it.

How the values were obtained:
[1] = molecular target: Tyrosine-protein kinase ABL1 (Homo sapiens, UniProt P00519, T315I); experiment: Selectivity interaction (KinomeScan (DiscoverX, competition-binding assay)) EUB0000178b ABL1
[2] = molecular target: Serine/threonine-protein kinase TAO2 (Homo sapiens) (UniProt Q9UL54); experiment: Selectivity interaction (KinomeScan (DiscoverX)) EUB0000178b TAOK2; conditions: at 1 µM
[3] = molecular target: Mitogen-activated protein kinase 8 (Homo sapiens, UniProt P45983); conditions: at 10 µM
[4] = molecular target: T1, Alpha-1A adrenergic receptor (Homo sapiens) (UniProt P35348); experiment: Selectivity interaction (SafetyScreen44™ (Eurofins, panel of GPCRS, ion channels, transporters) ) EUB0000169b ADRA1A; conditions: at 10 µM
T1 sequence (whole entry): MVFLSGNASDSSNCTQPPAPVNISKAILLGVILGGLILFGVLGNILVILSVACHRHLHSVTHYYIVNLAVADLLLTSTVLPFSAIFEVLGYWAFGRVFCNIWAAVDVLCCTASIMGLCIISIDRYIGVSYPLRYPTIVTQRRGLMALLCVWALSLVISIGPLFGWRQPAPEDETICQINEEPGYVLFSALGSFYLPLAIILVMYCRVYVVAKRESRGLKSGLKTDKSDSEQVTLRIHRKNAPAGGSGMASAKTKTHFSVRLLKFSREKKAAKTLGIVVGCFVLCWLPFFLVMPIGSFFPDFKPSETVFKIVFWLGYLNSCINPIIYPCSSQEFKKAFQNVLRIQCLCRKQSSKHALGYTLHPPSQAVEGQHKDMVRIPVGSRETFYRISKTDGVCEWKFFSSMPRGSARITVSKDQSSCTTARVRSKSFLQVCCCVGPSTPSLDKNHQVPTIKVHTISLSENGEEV

[5] = molecular target: Serine/threonine-protein kinase PLK3 (Homo sapiens, UniProt Q9H4B4); experiment: Selectivity interaction (KinomeScan (DiscoverX)) EUB0000702a PLK3; conditions: at 1 µM
[6] = system: Receptor-type tyrosine-protein kinase FLT3 (Homo sapiens), P36888 [UNDEFINED MUTATION]; experiment: Selectivity interaction (KinomeScan (DiscoverX)) EUB0000702a FLT3; conditions: at 1 µM
[7] = molecular target: BMP-2-inducible protein kinase (Homo sapiens) (UniProt Q9NSY1); experiment: Selectivity interaction (KinomeScan (DiscoverX)) EUB0000702a BMP2K; conditions: at 1 µM
[8] = molecular target: High affinity nerve growth factor receptor (Homo sapiens, UniProt P04629); conditions: at 1 µM
[9] = molecular target: Tyrosine-protein kinase Fer (Homo sapiens, UniProt P16591); conditions: at 1 µM
[10] = molecular target: NT-3 growth factor receptor (Homo sapiens, UniProt Q16288); conditions: at 1 µM
[11] = molecular target: T2, Mitogen-activated protein kinase kinase kinase 19 (Homo sapiens) (UniProt Q56UN5); experiment: Selectivity interaction (KinomeScan (DiscoverX)) EUB0000305b MAP3K19; conditions: CellTiter-Glo assay (Promega, proliferation in ACHN cells): IC50 = […] nM, https://www.sgc-ffm.uni-frankfurt.de/#!specificprobeove, at 100 nM
T2 sequence (whole entry): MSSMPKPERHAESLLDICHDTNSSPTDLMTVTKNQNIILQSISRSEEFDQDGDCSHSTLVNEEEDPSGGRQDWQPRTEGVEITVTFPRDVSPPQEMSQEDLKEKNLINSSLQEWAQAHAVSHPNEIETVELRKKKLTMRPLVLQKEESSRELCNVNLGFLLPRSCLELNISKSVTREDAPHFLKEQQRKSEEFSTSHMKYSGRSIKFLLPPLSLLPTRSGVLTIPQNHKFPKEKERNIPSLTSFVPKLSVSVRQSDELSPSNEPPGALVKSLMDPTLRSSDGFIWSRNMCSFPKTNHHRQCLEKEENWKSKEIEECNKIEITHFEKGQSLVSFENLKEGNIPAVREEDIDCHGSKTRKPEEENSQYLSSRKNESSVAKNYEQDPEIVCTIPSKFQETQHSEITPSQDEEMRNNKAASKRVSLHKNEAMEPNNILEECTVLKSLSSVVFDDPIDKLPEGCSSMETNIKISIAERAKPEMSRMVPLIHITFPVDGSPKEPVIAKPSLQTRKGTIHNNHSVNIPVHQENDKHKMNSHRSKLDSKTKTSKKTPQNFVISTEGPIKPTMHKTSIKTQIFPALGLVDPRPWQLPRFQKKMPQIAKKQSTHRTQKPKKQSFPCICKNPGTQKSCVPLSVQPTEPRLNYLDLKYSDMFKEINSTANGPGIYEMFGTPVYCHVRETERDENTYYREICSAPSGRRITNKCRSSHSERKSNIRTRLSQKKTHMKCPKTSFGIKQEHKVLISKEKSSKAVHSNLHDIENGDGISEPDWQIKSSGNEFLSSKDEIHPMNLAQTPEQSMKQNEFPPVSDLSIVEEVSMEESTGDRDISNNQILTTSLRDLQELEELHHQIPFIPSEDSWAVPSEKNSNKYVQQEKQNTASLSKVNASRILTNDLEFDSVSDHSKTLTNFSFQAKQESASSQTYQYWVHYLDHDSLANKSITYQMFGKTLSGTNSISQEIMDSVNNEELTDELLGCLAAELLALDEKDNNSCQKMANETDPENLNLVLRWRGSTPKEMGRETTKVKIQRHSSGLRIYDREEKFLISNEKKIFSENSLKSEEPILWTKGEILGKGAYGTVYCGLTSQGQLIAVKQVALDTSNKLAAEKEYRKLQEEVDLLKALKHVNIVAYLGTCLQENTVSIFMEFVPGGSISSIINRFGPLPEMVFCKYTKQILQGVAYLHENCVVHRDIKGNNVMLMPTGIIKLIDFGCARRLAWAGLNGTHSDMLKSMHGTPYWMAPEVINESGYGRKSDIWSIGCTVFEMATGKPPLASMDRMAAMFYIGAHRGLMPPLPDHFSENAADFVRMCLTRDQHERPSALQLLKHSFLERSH

Chain of Receptor-type tyrosine-protein kinase FLT3 (Homo sapiens), P36888 [UNDEFINED MUTATION] (P36888 whole entry, looked up, change not shown): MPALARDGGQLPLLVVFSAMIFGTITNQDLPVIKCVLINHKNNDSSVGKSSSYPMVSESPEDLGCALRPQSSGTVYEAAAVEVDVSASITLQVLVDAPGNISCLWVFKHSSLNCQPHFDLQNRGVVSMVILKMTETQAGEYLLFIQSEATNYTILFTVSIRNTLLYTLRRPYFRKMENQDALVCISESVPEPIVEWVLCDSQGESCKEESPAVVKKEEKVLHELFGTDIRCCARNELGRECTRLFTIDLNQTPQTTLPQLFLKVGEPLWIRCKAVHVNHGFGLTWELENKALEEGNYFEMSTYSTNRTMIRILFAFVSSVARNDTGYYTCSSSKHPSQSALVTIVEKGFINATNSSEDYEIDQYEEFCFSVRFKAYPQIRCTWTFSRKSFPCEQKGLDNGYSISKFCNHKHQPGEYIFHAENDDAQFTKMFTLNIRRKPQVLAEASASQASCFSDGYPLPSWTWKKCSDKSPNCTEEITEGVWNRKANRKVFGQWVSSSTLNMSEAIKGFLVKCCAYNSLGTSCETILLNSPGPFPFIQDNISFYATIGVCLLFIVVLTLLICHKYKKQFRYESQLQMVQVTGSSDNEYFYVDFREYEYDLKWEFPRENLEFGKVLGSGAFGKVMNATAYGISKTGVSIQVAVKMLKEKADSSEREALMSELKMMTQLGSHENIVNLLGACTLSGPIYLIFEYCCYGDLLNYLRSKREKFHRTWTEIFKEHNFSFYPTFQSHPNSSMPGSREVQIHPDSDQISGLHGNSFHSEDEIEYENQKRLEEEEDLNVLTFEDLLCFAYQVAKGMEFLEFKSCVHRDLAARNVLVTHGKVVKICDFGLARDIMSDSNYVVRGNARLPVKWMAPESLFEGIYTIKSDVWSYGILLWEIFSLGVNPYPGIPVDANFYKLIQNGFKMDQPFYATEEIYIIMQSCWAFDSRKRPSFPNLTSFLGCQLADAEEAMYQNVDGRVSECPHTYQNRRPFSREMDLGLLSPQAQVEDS
Chain of Tyrosine-protein kinase Fer (P16591 whole entry, looked up): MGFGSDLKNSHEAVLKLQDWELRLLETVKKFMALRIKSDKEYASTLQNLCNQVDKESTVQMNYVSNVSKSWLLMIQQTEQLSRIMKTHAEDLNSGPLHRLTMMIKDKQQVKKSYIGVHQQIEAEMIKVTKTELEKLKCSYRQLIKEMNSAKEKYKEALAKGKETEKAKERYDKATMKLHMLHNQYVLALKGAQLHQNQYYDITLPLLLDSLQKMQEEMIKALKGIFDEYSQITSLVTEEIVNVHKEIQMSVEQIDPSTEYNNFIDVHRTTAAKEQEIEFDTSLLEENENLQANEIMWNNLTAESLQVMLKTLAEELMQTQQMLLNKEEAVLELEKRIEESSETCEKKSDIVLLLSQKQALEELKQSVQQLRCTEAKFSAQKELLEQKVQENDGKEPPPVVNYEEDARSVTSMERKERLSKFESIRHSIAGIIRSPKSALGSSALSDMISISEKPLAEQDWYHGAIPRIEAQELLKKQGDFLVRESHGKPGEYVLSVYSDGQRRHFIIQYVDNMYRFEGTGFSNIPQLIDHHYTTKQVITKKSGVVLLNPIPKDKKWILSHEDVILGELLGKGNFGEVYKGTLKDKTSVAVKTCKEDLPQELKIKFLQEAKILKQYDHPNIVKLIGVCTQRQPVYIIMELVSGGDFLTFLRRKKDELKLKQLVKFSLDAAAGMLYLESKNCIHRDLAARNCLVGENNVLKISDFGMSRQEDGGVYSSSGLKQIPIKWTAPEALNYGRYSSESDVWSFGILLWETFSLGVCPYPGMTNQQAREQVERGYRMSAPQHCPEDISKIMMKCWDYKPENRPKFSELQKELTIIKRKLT
Chain of BMP-2-inducible protein kinase (Homo sapiens) (Q9NSY1 whole entry, looked up): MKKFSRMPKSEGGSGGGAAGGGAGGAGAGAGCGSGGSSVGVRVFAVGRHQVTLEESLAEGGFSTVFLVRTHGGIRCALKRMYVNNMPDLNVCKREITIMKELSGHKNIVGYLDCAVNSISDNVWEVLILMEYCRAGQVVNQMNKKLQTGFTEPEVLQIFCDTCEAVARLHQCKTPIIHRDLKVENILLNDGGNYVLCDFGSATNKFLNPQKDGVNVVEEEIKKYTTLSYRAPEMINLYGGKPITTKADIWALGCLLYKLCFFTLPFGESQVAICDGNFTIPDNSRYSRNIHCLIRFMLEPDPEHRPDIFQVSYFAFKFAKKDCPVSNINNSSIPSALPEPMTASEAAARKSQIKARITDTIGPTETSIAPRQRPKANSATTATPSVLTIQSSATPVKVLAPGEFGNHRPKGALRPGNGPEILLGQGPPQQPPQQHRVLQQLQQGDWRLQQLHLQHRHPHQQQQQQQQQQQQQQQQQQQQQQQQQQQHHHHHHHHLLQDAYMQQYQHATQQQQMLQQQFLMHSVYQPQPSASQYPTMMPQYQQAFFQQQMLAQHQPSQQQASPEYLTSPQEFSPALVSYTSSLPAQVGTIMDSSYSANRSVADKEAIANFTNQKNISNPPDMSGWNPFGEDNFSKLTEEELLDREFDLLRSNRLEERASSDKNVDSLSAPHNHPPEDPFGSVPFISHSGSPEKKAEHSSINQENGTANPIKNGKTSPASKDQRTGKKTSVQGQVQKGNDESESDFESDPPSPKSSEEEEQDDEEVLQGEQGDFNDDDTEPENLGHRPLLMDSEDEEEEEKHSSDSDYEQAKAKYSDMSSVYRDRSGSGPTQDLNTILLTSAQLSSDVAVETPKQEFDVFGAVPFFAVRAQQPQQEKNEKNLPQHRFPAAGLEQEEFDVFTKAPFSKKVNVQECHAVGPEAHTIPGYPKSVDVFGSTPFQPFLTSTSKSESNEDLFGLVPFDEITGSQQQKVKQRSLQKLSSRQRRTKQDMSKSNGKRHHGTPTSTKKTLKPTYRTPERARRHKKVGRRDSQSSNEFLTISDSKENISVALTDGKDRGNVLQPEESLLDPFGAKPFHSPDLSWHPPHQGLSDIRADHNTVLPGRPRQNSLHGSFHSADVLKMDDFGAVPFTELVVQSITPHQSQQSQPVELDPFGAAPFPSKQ
Chain of Serine/threonine-protein kinase TAO2 (Homo sapiens) (Q9UL54 whole entry): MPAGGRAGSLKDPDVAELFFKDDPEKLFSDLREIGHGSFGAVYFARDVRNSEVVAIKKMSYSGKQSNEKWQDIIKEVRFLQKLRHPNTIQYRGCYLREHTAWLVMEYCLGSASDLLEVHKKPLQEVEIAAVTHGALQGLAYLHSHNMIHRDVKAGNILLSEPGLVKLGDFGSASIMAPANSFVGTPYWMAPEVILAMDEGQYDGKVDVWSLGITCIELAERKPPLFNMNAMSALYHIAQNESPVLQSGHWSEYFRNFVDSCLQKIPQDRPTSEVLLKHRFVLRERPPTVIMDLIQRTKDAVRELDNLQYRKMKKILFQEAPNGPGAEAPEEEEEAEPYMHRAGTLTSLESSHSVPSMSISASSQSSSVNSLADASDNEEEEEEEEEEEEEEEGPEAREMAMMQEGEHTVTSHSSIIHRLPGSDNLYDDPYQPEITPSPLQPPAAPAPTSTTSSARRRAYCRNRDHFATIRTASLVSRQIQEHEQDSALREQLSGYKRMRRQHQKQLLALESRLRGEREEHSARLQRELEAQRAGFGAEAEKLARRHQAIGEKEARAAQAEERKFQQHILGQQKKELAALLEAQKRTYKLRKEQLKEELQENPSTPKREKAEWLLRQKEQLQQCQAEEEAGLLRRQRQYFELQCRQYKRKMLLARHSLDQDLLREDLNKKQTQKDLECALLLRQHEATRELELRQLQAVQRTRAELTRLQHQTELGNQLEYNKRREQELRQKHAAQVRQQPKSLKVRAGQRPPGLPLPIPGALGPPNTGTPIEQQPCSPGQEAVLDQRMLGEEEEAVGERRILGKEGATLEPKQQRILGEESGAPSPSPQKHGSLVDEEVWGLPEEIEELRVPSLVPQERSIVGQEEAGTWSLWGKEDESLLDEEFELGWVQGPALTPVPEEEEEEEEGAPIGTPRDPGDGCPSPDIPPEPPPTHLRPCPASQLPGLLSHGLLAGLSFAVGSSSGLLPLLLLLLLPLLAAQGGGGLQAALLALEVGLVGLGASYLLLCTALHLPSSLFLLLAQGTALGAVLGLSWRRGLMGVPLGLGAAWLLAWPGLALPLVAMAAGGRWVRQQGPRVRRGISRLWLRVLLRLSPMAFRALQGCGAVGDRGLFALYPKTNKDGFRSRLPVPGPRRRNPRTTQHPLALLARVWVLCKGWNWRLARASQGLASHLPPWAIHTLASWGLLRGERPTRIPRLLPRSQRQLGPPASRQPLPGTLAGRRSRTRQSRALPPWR
Chain of Serine/threonine-protein kinase PLK3 (Q9H4B4 whole entry, looked up): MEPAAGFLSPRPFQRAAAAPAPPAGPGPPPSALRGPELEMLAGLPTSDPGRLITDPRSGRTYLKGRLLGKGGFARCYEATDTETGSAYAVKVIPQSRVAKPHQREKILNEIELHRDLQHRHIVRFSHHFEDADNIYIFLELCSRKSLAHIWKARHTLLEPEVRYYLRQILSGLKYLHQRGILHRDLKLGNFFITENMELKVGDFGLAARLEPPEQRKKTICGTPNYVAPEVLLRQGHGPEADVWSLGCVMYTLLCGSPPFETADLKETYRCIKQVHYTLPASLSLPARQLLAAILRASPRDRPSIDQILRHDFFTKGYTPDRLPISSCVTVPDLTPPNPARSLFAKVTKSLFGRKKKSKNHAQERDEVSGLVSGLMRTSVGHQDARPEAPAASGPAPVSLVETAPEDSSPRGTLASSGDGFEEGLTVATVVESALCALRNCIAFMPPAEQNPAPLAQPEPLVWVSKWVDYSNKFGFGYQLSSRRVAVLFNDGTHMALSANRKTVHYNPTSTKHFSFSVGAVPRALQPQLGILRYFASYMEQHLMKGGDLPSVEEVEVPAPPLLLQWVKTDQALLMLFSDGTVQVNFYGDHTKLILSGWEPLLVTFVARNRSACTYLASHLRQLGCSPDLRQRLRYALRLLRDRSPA

Kd [1]: 14 nM | % of control [2]: 3.4%
Compound: CN1C(=O)c2sccc2N(C)c2nc(Nc3ccc(S(N)(=O)=O)cc3)ncc21

% of control [3]: 92%
Compound: CC[C@@H]1C(=O)N(C)c2cnc(Nc3ccc(C(=O)NC4CCN(C)CC4)cc3OC)nc2N1C1CCCC1
% of control [4]: 13%

% of control [5]: 1.7% | % of control [6]: 0% | % of control [7]: 2.3%
Compound: CN(c1ccnc(CNc2nc(Nc3ccc4c(c3)CC(=O)N4)ncc2C(F)(F)F)n1)S(C)(=O)=O [PF-00911705]

Compound: CCOc1cn(-c2ccc(F)cc2C)nc1C(=O)Nc1ccc(Oc2ccnc3cc(OC)c(OC)cc23)c(F)c1
% of control [8]: < 10% | % of control [9]: < 10% | % of control [10]: < 10%

% of control [11]: 10%
Compound: C[C@H](c1ccnc(Nc2nc3ccc(-c4cc(N(C)C)ncn4)cc3[nH]2)c1)N1CCN(C(=O)CC(F)(F)F)CC1 [BAY-985]
